Reference: patent US20260242416A1, “ANTIMICROBIAL PEPTIDES” (priority 2023, published 2026)
Converted amounts (≈) assume the structure as drawn. “Also recorded” adds a separate entry of the source. Where two headings read alike, the source gives them in different places. Where a SMILES comes first, the peptide text is derived from it.

Columns and labels:
[1] = system: Escherichia coli ATCC 25922; test: Antimicrobial susceptibility testing (MIC/MBC), Example 1; type: cell-based; conditions: Table 3; footnote: wild-type Escherichia coli ATCC 29522; minimum of three independent experiments
Protocol: Twenty-one putative AMP sequences identified using the rAMPage pipeline were validated through a minimum of three AST experiments performed independently on separate days. In these tests, the AMP activity was assessed using two metrics: minimum inhibitory concentration and minimum bactericidal concentration (MIC and MBC, respectively). MIC and MBC values were determined using procedures outlined by the Clinical and Laboratory Standards Institute (CLSI), with the recommended adaptations for the testing of cationic AMPs described previously. “Wild-type” strains of Escherichia coli (E. coli 25922) and Staphylococcus aureus (S. aureus 29213) were purchased from the American Type Culture Collection (ATCC; Manassas, VA, USA) and were used for screening of antimicrobial activity. Briefly, putative AMPs were synthesized by Genscript (Piscataway, NJ, USA) and received in lyophilized format. These peptides were suspended using ultrapure water (Life Technologies, Grand Island, NY, USA; Invitrogen cat #10977-015), and an 11 μL two-fold serial dilution of 1280 to 2.5 μg/mL was prepared in duplicate rows in a 96-well microtiter plate, before being combined with 100 μL standardized bacterial inoculum yielding a final duplicate testing range of 128 to 0.25 μg/mL. The bacterial inoculum was prepared using colonies isolated on non-selective agar and combined with Mueller Hinton Broth. This suspension was measured and adjusted to achieve an optical density of 0.08-0.1, equivalent to a 0.5 McFarland standard (1-2×10^8 cfu/mL). The inoculum was then diluted to a target concentration of 5±3×10^5 cfu/mL; total viable counts from the final inoculum were routinely performed to confirm the target bacterial density was achieved. […] The MIC and adjacent wells were plated onto non-selective agar; the concentration in which killed 99.9% of the inoculum following additional overnight incubation was determined to be the MBC.

[2] = system: E. coli ATCC 25922, Salmonella Enteritidis, S. aureus ATCC 29213; test: Broth microdilution, panel result (at least one / all strains), Example 2; type: cell-based; parameters: key to inhibitory activity (asterisk): *Indicates inhibitory activity; conditions: for inhibitory activity (asterisk): Table 14, against at least one of E. coli ATCC 25922, Salmonella Enteritidis, S. aureus ATCC 29213; for spectrum of antimicrobial activity: panel of E. coli, Salmonella Enteritidis, S. aureus, up to 128 μg/mL
Outline: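 CLSI broth microdilution adapted for cationic peptides, in MHB with a final inoculum of 2-8×10^5 cfu/mL in polypropylene plates. Peptides were serially diluted from 128 down to 0.5 μg/mL and incubated 20-24 h at 37° C. MIC is the lowest concentration with no visible growth.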

[3] = system: E. coli ATCC 25922; type: cell-based, Escherichia coli
Outline: (§1)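 MIC taken as lowest peptide level showing no visible growth after 20-24 h at 37° C. Twofold series 128-0.5 μg/mL in Mueller-Hinton broth, polypropylene plates, final inoculum 2-8×10^5 cfu/mL, per CLSI with cationic-peptide adaptations.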

[4] = system: Salmonella enterica serovar Enteritidis (human clinical isolate); type: cell-based; conditions: serovar Enteritidis (human clinical isolate)
Outline: as §1

[5] = system: S. aureus ATCC 29213; type: cell-based, Staphylococcus aureus; conditions: for MIC (ug/mL) S. aureus: ATCC 29213
Outline: as §1

[6] = alamarBlue cell viability assay (cytotoxicity); type: cell-based, human; conditions: human, HEK293 cells; for viability at 4 h, 64 µg/mL: at 64 μg/mL; for viability at 4 h, 128 µg/mL: at 128 μg/mL
Protocol: (§2) The human embryonic kidney cell line HEK293 and the corresponding growth media and supplements were purchased from the ATCC. The cells were maintained in Eagle's Minimum Essential Medium (EMEM) supplemented with 10% fetal bovine serum (FBS) and 1% Penicillin-Streptomycin solution and grown in a 5% CO2 incubator at 37° C. […] Cells were incubated overnight to allow them to adhere. […] TX-100 was diluted to 2% in UltraPure deionized water and added as a positive control. Complete growth medium was added to the peptides and TX-100 containing wells. Spent growth medium of wells with adhered cells was replaced with the contents of wells containing serially diluted peptides or TX-100. Cells were incubated for four hours at 37° C. in 5% CO2 incubator. Growth medium containing peptides or TX-100 was replaced with fresh growth medium containing 10% (v/v) alamarBlue (Bio-Rad Laboratories, Hercules, CA, USA) and incubated for 20 h. Fluorescence was measured at excitation of 540 nm and emission of 590 nm in a Cytation 5 plate reader (Agilent BioTek, Winooski, VT, USA) and results recorded and analyzed with Gen5 software (Agilent BioTek, Winooski, VT, USA). The average fluorescence reads of TX-100 and growth media only wells were used to calculate 0% and 100% cell viability, respectively. The percentage of viable cells at each peptide concentration was determined by Formula 1: […]

[7] = system: HEK293 cells; test: alamarBlue cell viability assay (cytotoxicity); type: cell-based, human; conditions: concentrations up to 128 μg/mL
Protocol: as §2

Row | MIC against E. coli [3] | MIC (ug/mL) S. Enteritidis [4] | MIC against S. aureus [5] | MIC (ug/mL) E. coli ([3]; ATCC 25922) | MIC (ug/mL) S. aureus [5] | MIC against E. coli ([3]; ATCC 25922) | MIC against Salmonella Enteritidis [4] | Structure (SMILES) | MIC* (μg/mL) E. coli [1] | inhibitory activity (asterisk) [2] | viability at 4 h, 64 µg/mL [6] | viability at 4 h, 128 µg/mL [6] | cytotoxicity [7] | spectrum of antimicrobial activity [2]
1 | – | – | – | – | – | – | – | CC[C@H](C)[C@H](NC(=O)CN)C(=O)N[C@@H](CC(C)C)C(=O)N[C@H](C(=O)N[C@@H](CC(=O)O)C(=O)N[C@H](C(=O)N[C@@H](CC(C)C)C(=O)N[C@@H](CCCCN)C(=O)NCC(=O)N[C@@H](C)C(=O)N[C@@H](C)C(=O)N[C@@H](CCCCN)C(=O)N[C@@H](CC(N)=O)C(=O)N[C@H](C(=O)N[C@@H](C)C(=O)NCC(=O)N[C@H](C(=O)N[C@@H](CC(C)C)C(=O)N[C@@H](CC(C)C)C(=O)N[C@@H](CC(=O)O)C(=O)N[C@@H](CCCCN)C(=O)N[C@@H](CC(C)C)C(=O)N[C@@H](CCCCN)C(=O)N[C@@H](CS)C(=O)N[C@@H](CCCCN)C(=O)N[C@H](C(=O)N[C@H](C(=O)NCC(=O)NCC(=O)N[C@@H](CS)C(=O)O)[C@@H](C)O)[C@@H](C)CC)C(C)C)C(C)C)[C@@H](C)O)[C@@H](C)O [PeNi11] (H-GILTDTLKGAAKNVAGVLLDKLKCKITGGC-OH; N-terminus and C-terminus assumed) | 8 to 16 µg⁻¹ mL⁻¹ | 1087.* GILTDTLKGAAKNVAGVLLDKLKCKITGGC | – | – | – | –
2 | – | – | – | – | – | – | – | CC[C@H](C)[C@H](NC(=O)CN)C(=O)N[C@@H](CC(C)C)C(=O)N[C@@H](CC(=O)O)C(=O)N[C@H](C(=O)N[C@@H](CC(C)C)C(=O)N[C@@H](CCCCN)C(=O)N[C@@H](CCC(N)=O)C(=O)N[C@@H](CC(C)C)C(=O)NCC(=O)N[C@@H](CCCCN)C(=O)N[C@@H](C)C(=O)N[C@@H](C)C(=O)N[C@H](C(=O)N[C@@H](CCC(N)=O)C(=O)NCC(=O)N[C@@H](CC(C)C)C(=O)N[C@@H](CC(C)C)C(=O)N[C@@H](CO)C(=O)N[C@@H](CCCCN)C(=O)N[C@@H](C)C(=O)N[C@@H](C)C(=O)N[C@@H](CS)C(=O)N[C@@H](CCCCN)C(=O)N[C@@H](CC(C)C)C(=O)N[C@@H](C)C(=O)N[C@@H](CCCCN)C(=O)N[C@H](C(=O)N[C@@H](CS)C(=O)O)[C@@H](C)O)C(C)C)[C@@H](C)O [AmMa1] (H-GILDTLKQLGKAAVQGLLSKAACKLAKTC-OH; N-terminus and C-terminus assumed) | 2 to 4 µg⁻¹ mL⁻¹ | 12.* GILDTLKQLGKAAVQGLLSKAACKLAKTC | – | – | – | –
3 | 4 µg/mL (≈ 1.99 µM) | 8 to 16 µg/mL | 4 µg/mL (≈ 1.99 µM) | – | – | – | – | CC(C)C[C@H](NC(=O)CNC(=O)[C@@H](NC(=O)[C@@H](NC(=O)CNC(=O)[C@H](CS)NC(=O)[C@H](CC(C)C)NC(=O)[C@@H](NC(=O)[C@H](CCCCN)NC(=O)[C@H](CCCCN)NC(=O)CNC(=O)[C@@H](NC(=O)CNC(=O)[C@H](CC(C)C)NC(=O)[C@@H](NC(=O)[C@H](CCCCN)NC(=O)CNC(=O)[C@H](CC(C)C)NC(=O)[C@H](CC(C)C)NC(=O)CN)C(C)C)C(C)C)C(C)C)C(C)C)[C@@H](C)O)C(=O)N[C@@H](CS)C(=O)O [PeNi1] (H-GLLGKVLGVGKKVLCGVTGLC-OH; N-terminus and C-terminus assumed) | – | 363.* GLLGKVLGVGKKVLCGVTGLC | < 75% | ~0% | high levels of cytotoxicity at concentrations higher than their MICs | active against all three bacteria
4 | – | 8 to 16 µg/mL | – | 2 to 4 µg/mL | 4 to 8 µg/mL | – | – | CC[C@H](C)[C@H](NC(=O)[C@H](CCCCN)NC(=O)CNC(=O)[C@H](CC(C)C)NC(=O)[C@H](CC(C)C)NC(=O)CN)C(=O)N[C@@H](CC(C)C)C(=O)NCC(=O)N[C@H](C(=O)NCC(=O)N[C@@H](CCCCN)C(=O)N[C@@H](CCCCN)C(=O)N[C@H](C(=O)N[C@@H](CC(C)C)C(=O)N[C@@H](CS)C(=O)NCC(=O)N[C@H](C(=O)N[C@@H](CO)C(=O)NCC(=O)N[C@@H](CC(C)C)C(=O)N[C@@H](CS)C(=O)O)C(C)C)C(C)C)C(C)C [PeNi9] (H-GLLGKILGVGKKVLCGVSGLC-OH; N-terminus and C-terminus assumed) | – | 32.* GLLGKILGVGKKVLCGVSGLC | – | 0% | low or no cytotoxicity at lower concentrations; also recorded: high levels of cytotoxicity at concentrations higher than their MICs | active against all three bacteria
5 | 4 µg/mL (≈ 1.97 µM) | 8 to 16 µg/mL | – | – | 4 to 8 µg/mL | – | – | CC[C@H](C)[C@H](NC(=O)CNC(=O)[C@H](CCCNC(=N)N)NC(=O)[C@H](CC(C)C)NC(=O)[C@H](CC(C)C)NC(=O)CN)C(=O)N[C@@H](CC(C)C)C(=O)NCC(=O)N[C@@H](C)C(=O)NCC(=O)N[C@@H](CCCCN)C(=O)N[C@@H](CCCCN)C(=O)N[C@H](C(=O)N[C@H](C(=O)N[C@@H](CS)C(=O)NCC(=O)N[C@@H](CC(C)C)C(=O)N[C@@H](CO)C(=O)NCC(=O)N[C@@H](CC(C)C)C(=O)N[C@@H](CS)C(=O)O)C(C)C)[C@@H](C)CC [OdMa2] (H-GLLRGILGAGKKIVCGLSGLC-OH; N-terminus and C-terminus assumed) | – | 64.* GLLRGILGAGKKIVCGLSGLC | < 75% | ~0% | high levels of cytotoxicity at concentrations higher than their MICs | active against all three bacteria
6 | – | 4 to 8 µg/mL | – | 2 to 4 µg/mL | > 128 µg/mL | 2 to 4 µg/mL | 4 to 8 µg/mL | CC(C)C[C@H](NC(=O)[C@H](CCCNC(=N)N)NC(=O)[C@@H]1CCCN1C(=O)[C@H](Cc1c[nH]cn1)NC(=O)[C@@H]1CCCN1C(=O)[C@@H]1CCCN1C(=O)[C@H](CCCNC(=N)N)NC(=O)[C@@H]1CCCN1C(=O)[C@@H]1CCCN1C(=O)[C@@H](NC(=O)[C@H](CCC(N)=O)NC(=O)[C@H](CCC(N)=O)NC(=O)[C@@H]1CCCN1C(=O)[C@H](CCCNC(=N)N)NC(=O)[C@@H]1CCCN1C(=O)[C@@H](N)CCCNC(=N)N)C(C)C)C(=O)N[C@@H](CCCNC(=N)N)C(=O)N[C@@H](CCCNC(=N)N)C(=O)O [PaVa1, RPRPQQVPPRPPHPRLRR] (H-RPRPQQVPPRPPHPRLRR-OH) | – | – | – | – | not to be toxic to HEK293 cells at any of the concentrations tested; also recorded: not toxic against either porcine erythrocytes or HEK293 cells | –
7 | – | > 128 µg/mL | – | 8 to 16 µg/mL | 64 to 128 µg/mL | – | – | CC[C@H](C)[C@H](NC(=O)[C@H](CC(C)C)NC(=O)[C@H](CCCCN)NC(=O)[C@H](CC(C)C)NC(=O)CNC(=O)CNC(=O)[C@H](CCCCN)NC(=O)[C@@H](NC(=O)[C@H](CC(C)C)NC(=O)[C@H](CCCCN)NC(=O)CNC(=O)[C@@H](NC(=O)[C@H](CC(C)C)NC(=O)CN)C(C)C)C(C)C)C(=O)NCC(=O)N[C@@H](Cc1c[nH]cn1)C(=O)N[C@H](C(=O)N[C@@H](C)C(=O)N[C@@H](CC(N)=O)C(=O)NCC(=O)O)C(C)C [RaSi1] (H-GLVGKLVKGGLKLIGHVANG-OH; N-terminus and C-terminus assumed) | – | 2.* GLVGKLVKGGLKLIGHVANG | – | – | – | –
